Results on 7 compounds are retold here after patent US20090098130A1, “GLUCAGON-LIKE PROTEIN-1 RECEPTOR (GLP-1R) AGONIST COMPOUNDS” (priority 2007, published 2009).

pEC50: −log10 of the molar value. Non-standard residues stand in square brackets, D forms with d. Residues, ends and D or L forms follow the SMILES beside them. Aib = CC(C)(N)C(=O)O

The term pEC50 denotes the EC50 on a negative log10 scale, so that one unit is a factor of ten. A low value points to a large EC50.

The test system of one assay is pancreatic β cells. The assay is described as follows: glucose-stimulated insulin secretion (GSIS) assay. It is filed as cell-based. The following applies: GA targeting agent-linker conjugate; GSIS assay in vitro. The method, then:
Briefly, glucose and GA targeting peptide was added at various concentrations to pancreatic β cell cultures, and insulin secretion was detected by measuring insulin levels over time. EC50 was calculated for each peptide.
The ability of these GA targeting agent-linker conjugates to stimulate […] secretion in vitro was measured using the GSIS assay described in Example 27. […] Each of these peptides contained a side-chain modified Lys residue according to the scheme illustrated in FIG. 30 at a different position.
`CC[C@H](C)[C@H](NC(=O)[C@H](Cc1ccccc1)NC(=O)[C@H](CCC(=O)O)NC(=O)[C@H](CCCCN)NC(=O)[C@H](C)NC(=O)[C@H](C)NC(=O)[C@H](CCC(N)=O)NC(=O)CNC(=O)[C@H](CCC(=O)O)NC(=O)[C@H](CC(C)C)NC(=O)[C@H](Cc1ccc(O)cc1)NC(=O)[C@H](CO)NC(=O)[C@H](CO)NC(=O)[C@@H](NC(=O)[C@H](CC(=O)O)NC(=O)[C@H](CO)NC(=O)[C@@H](NC(=O)[C@H](Cc1ccccc1)NC(=O)[C@@H](NC(=O)CNC(=O)[C@H](CCC(=O)O)NC(=O)CNC(=O)[C@H](Cc1c[nH]cn1)NC(=O)CCOCCOCCOCCOCCNC(=O)CCCC(=O)Nc1ccc(CCC(=O)CC(C)=O)cc1)[C@@H](C)O)[C@@H](C)O)C(C)C)C(=O)N[C@@H](C)C(=O)N[C@@H](Cc1c[nH]c2ccccc12)C(=O)N[C@@H](CC(C)C)C(=O)N[C@H](C(=O)N[C@@H](CCCCN)C(=O)NCC(=O)N[C@@H](CCCNC(=N)N)C(=O)N[C@@H](CCCCN)C(N)=O)C(C)C`: the pEC50 is more than 5.00.

Turning to `CC/C=C/CC(=O)N[C@@H](Cc1c[nH]cn1)C(=O)NC(C)(C)C(=O)N[C@@H](CCC(=O)O)C(=O)NCC(=O)N[C@H](C(=O)N[C@@H](Cc1ccccc1)C(=O)N[C@H](C(=O)N[C@@H](CO)C(=O)N[C@@H](CC(=O)O)C(=O)N[C@H](C(=O)N[C@@H](CO)C(=O)N[C@@H](CO)C(=O)N[C@@H](Cc1ccc(O)cc1)C(=O)N[C@@H](CC(C)C)C(=O)N[C@@H](CCC(=O)O)C(=O)N[C@@H](CCC(=O)O)C(=O)N[C@@H](CCC(N)=O)C(=O)N[C@@H](C)C(=O)N[C@H](C(=O)N[C@@H](CCCCN)C(=O)N[C@@H](CCC(=O)O)C(=O)N[C@@H](Cc1ccccc1)C(=O)N[C@H](C(=O)N[C@@H](C)C(=O)N[C@@H](Cc1c[nH]c2ccccc12)C(=O)N[C@@H](CC(C)C)C(=O)N[C@H](C(=O)N[C@@H](CCCCN)C(=O)NC(C)(C)C(=O)N[C@@H](CCCNC(=N)N)C(N)=O)[C@@H](C)CC)[C@@H](C)CC)C(C)C)C(C)C)[C@@H](C)O)[C@@H](C)O`, the pEC50 is more than 5.00.

Take `CC[C@H](C)[C@H](NC(=O)[C@H](Cc1ccccc1)NC(=O)[C@H](CCC(=O)O)NC(=O)[C@H](CCCCN)NC(=O)[C@@H](NC(=O)[C@H](C)NC(=O)[C@H](CCC(N)=O)NC(=O)[C@H](CCC(=O)O)NC(=O)[C@H](CCC(=O)O)NC(=O)[C@H](CC(C)C)NC(=O)[C@H](Cc1ccc(O)cc1)NC(=O)[C@H](CO)NC(=O)[C@H](CO)NC(=O)[C@@H](NC(=O)[C@H](CC(=O)O)NC(=O)[C@H](CO)NC(=O)[C@@H](NC(=O)[C@H](Cc1ccccc1)NC(=O)[C@@H](NC(=O)CNC(=O)[C@H](CCC(=O)O)NC(=O)C(C)(C)NC(=O)[C@H](Cc1c[nH]cn1)NC(=O)Cc1cccc(N)c1)[C@@H](C)O)[C@@H](C)O)C(C)C)C(C)C)C(=O)N[C@@H](C)C(=O)N[C@@H](Cc1c[nH]c2ccccc12)C(=O)N[C@@H](CC(C)C)C(=O)N[C@H](C(=O)N[C@@H](CCCCN)C(=O)NC(C)(C)C(=O)N[C@@H](CCCNC(=N)N)C(N)=O)[C@@H](C)CC`: the pEC50 was more than 5.00.

Still in this assay, the particulars now being: GA targeting peptide; insulin secretion from pancreatic β cell cultures in vitro with glucose.
Compound `CC[C@H](C)[C@H](NC(=O)[C@H](Cc1ccccc1)NC(=O)[C@H](CCC(=O)O)NC(=O)[C@H](CCCCN)NC(=O)[C@H](C)NC(=O)[C@H](C)NC(=O)[C@H](CCC(N)=O)NC(=O)CNC(=O)[C@H](CCC(=O)O)NC(=O)[C@H](CC(C)C)NC(=O)[C@H](Cc1ccc(O)cc1)NC(=O)[C@H](CO)NC(=O)[C@H](CO)NC(=O)[C@@H](NC(=O)[C@H](CC(=O)O)NC(=O)[C@H](CO)NC(=O)[C@@H](NC(=O)[C@H](Cc1ccccc1)NC(=O)[C@@H](NC(=O)CNC(=O)[C@H](CCC(=O)O)NC(=O)[C@H](C)NC(=O)[C@@H](N)Cc1c[nH]cn1)[C@@H](C)O)[C@@H](C)O)C(C)C)C(=O)N[C@@H](C)C(=O)N[C@@H](Cc1c[nH]c2ccccc12)C(=O)N[C@@H](CC(C)C)C(=O)N[C@H](C(=O)N[C@@H](CCCCN)C(=O)NCC(=O)N[C@@H](CCCNC(=N)N)C(N)=O)C(C)C` [SEQ ID NO: 1, reference compound] gave a pEC50 of more than 5.00.

`CC[C@H](C)[C@H](NC(=O)[C@H](Cc1ccccc1)NC(=O)[C@H](CCC(=O)O)NC(=O)[C@H](CCCCN)NC(=O)[C@H](C)NC(=O)[C@H](C)NC(=O)[C@H](CCC(N)=O)NC(=O)CNC(=O)[C@H](CCC(=O)O)NC(=O)CNC(=O)[C@H](Cc1ccc(O)cc1)NC(=O)[C@H](CO)NC(=O)[C@H](CO)NC(=O)[C@@H](NC(=O)[C@H](CC(=O)O)NC(=O)[C@H](CO)NC(=O)[C@@H](NC(=O)[C@H](Cc1ccccc1)NC(=O)[C@@H](NC(=O)CNC(=O)[C@H](CCC(=O)O)NC(=O)C(C)(C)NC(=O)[C@@H](N)Cc1c[nH]cn1)[C@@H](C)O)[C@@H](C)O)C(C)C)C(=O)N[C@@H](C)C(=O)N[C@@H](Cc1c[nH]c2ccccc12)C(=O)N[C@@H](CC(C)C)C(=O)N[C@H](C(=O)N[C@@H](CCCCN)C(=O)NC(C)(C)C(=O)N[C@@H](CCCNC(=N)N)C(N)=O)C(C)C` [SEQ ID NO: 40] (H-H[Aib]EGTFTSDVSSYGEGQAAKEFIAWLVK[Aib]R-NH2): the pEC50 was more than 5.00.

Take `CC[C@H](C)[C@H](NC(=O)[C@H](Cc1ccccc1)NC(=O)[C@H](CCC(=O)O)NC(=O)[C@H](CCCCN)NC(=O)[C@H](C)NC(=O)[C@H](C)NC(=O)[C@H](CCC(N)=O)NC(=O)CNC(=O)[C@H](CCC(=O)O)NC(=O)[C@H](CS)NC(=O)[C@H](Cc1ccc(O)cc1)NC(=O)[C@H](CO)NC(=O)[C@H](CO)NC(=O)[C@@H](NC(=O)[C@H](CC(=O)O)NC(=O)[C@H](CO)NC(=O)[C@@H](NC(=O)[C@H](Cc1ccccc1)NC(=O)[C@@H](NC(=O)CNC(=O)[C@H](CCC(=O)O)NC(=O)C(C)(C)NC(=O)[C@@H](N)Cc1c[nH]cn1)[C@@H](C)O)[C@@H](C)O)C(C)C)C(=O)N[C@@H](C)C(=O)N[C@@H](Cc1c[nH]c2ccccc12)C(=O)N[C@@H](CC(C)C)C(=O)N[C@H](C(=O)N[C@@H](CCCCN)C(=O)NC(C)(C)C(=O)N[C@@H](CCCNC(=N)N)C(N)=O)C(C)C` [SEQ ID NO: 41] (H-H[Aib]EGTFTSDVSSYCEGQAAKEFIAWLVK[Aib]R-NH2): the negative logarithm of the EC50 (pEC50) was more than 5.00.

For `CC[C@H](C)[C@H](NC(=O)[C@H](Cc1ccccc1)NC(=O)[C@H](CCC(=O)O)NC(=O)[C@H](CCCCN)NC(=O)[C@H](C)NC(=O)[C@H](C)NC(=O)[C@H](CCC(N)=O)NC(=O)CNC(=O)[C@H](CCC(=O)O)NC(=O)[C@H](Cc1ccccc1)NC(=O)[C@H](Cc1ccc(O)cc1)NC(=O)[C@H](CO)NC(=O)[C@H](CO)NC(=O)[C@@H](NC(=O)[C@H](CC(=O)O)NC(=O)[C@H](CO)NC(=O)[C@@H](NC(=O)[C@H](Cc1ccccc1)NC(=O)[C@@H](NC(=O)CNC(=O)[C@H](CCC(=O)O)NC(=O)C(C)(C)NC(=O)[C@@H](N)Cc1c[nH]cn1)[C@@H](C)O)[C@@H](C)O)C(C)C)C(=O)N[C@@H](C)C(=O)N[C@@H](Cc1c[nH]c2ccccc12)C(=O)N[C@@H](CC(C)C)C(=O)N[C@H](C(=O)N[C@@H](CCCCN)C(=O)NC(C)(C)C(=O)N[C@@H](CCCNC(=N)N)C(N)=O)C(C)C` [SEQ ID NO: 42] (H-H[Aib]EGTFTSDVSSYFEGQAAKEFIAWLVK[Aib]R-NH2), the negative logarithm of the EC50 (pEC50) was more than 5.00.
